In patent US6423741B1, “Anti-microbial composition and method for producing the same” (priority 1998, dated 2002):
Values after ≈ are worked out from the molar mass of the structure shown. Read-outs that look alike come from different tables or passages of the source.

Assays:
[1] = system: gyr mutant (Nal^r) strains of E.coli; details: earlier invention; cited from earlier work
[2] = system: M1 (Mutant), gyr A− mutant; assay: Disc sensitivity of E. coli strains; type: cell-based; details: gyr A− mutant (M1) developed from wild type; no dose stated
Text: (§1) Since pathogens always try to counter the drug by genetically modifying itself through mutation(s) in the region of the drug target gene, it is necessary to kill those mutant(s) resistant cells for effective drug management. With this rationale, the applicants evaluated a selected drug resistant mutant strain (Ml) for nalidixic acid (wild type strains being sensitive to nalidixic acid). This mutant strain developed from wild type was defective in Gyr A subunit confirmed by mobilizing a plasmid bearing a wild type gyr A gene. […] Similarly a second mutant (M2) developed from the gyr A^− mutant strain (Nal^r) became sensitive to nalidixic acid which being resistant to α arteether (Table 3). It was noted that invariably among all the tested strains, those resistant to nalidixic acid were sensitive to α arteether and the strains sensitive to nalidixic acid were resistant to cc arteether. […] This is so, because the resistance to nalidixic acid is developed by gyr A mutation and the mutants will be killed by α arteether while, the α-arteether resistant strains will automatically become nalidixic acid sensitive and thus will be killed by nalidixic acid and this way all the spontaneous resistant bacteria could be contained.

[3] = system: M2 (Mutant); assay: Disc sensitivity of E. coli strains; type: cell-based; details: second mutant (M2) developed from gyr A− mutant; no dose stated
Text: as §1

[4] = Activity at different pH; details: pH (neutral)
Protocol: Further, it is worth noting here that the said compounds of the invention are already in use for human consumption and the safety data of applications of the compounds are already known. As a known example of prior art (Asthana, O. P, Srivastava, J. S and Valecha, N., 1997. Current status of the artemisinin derivatives in the treatment of malaria with focus on arteether. Journal of Parasitic Diseases. 21: 1-12.), α/β arteether mixture is given at 150 mg doses (one dose per day, for 3 days) as intramuscular injection for treatment of drug resistant and cerebral malaria cases. The injections in the mentioned preparation are prepared in neutralized vegetable oil. Both the compounds of invention that is, α arteether and the quinolones have shown the best activities at pH 7.0 (neutral) in our experiments. Thus, the composition of this invention can be used to treat bacterial infections, particularly the cases where the emergence of drug resistance is known to have high incidence level. The said composition/composition can be employed for prevention of resistance development through random mutations occurring in bacteria against antibiotics. Various classes of quinolone drugs thus can be administered along with α-arteether in form of injection by suspending the compound in the neutralised vegetable oil. […]

[5] = system: Escherchia coli mutant A2; assay: Growth (absorbance at 620 nm) at increasing concentrations of α-arteether; type: cell-based
Protocol: (§2) To determine the correlation between nalidixic acid and α-arteether sensitivity, the applicants selected Escherchia coli cultures which were resistant to nalidixic acid at varying degrees (concentrations). Based on the minimal inhibitory concentration of nalidixic acid, Escherchia coli mutants were grouped as highly sensitive (MIC less than or equal to 10 μg/ml), resistant (MIC 10 to 200 μg/ml), […] (MIC more than or equal to 200 μg/ml). These strains were then tested for their sensitivity against α-arteether by estimating their growth (Absorbance at 620 nano meter wavelength of light) in presence of increasing concentrations of α-arteether. The absorbance data was converted to percent growth by considering the absorbance in control as 100%. The growth was then quantified as follows: 1.) greater than 80% growth : the mutant is highly resistant to α-arteether; 2.) 20 to 80% growth : the mutant is moderately resistant to α-arteether; 3.) less than 20% growth : the mutant is sensitive to α-arteether. […] In other words Escherchia coli mutants most resistant to nalidixic acid are most efficiently killed by α-arteether (Table 4) and vice versa.

[6] = system: Escherchia coli mutant A3; assay: as above; type: cell-based
Protocol: as §2

[7] = system: Escherchia coli mutant A4; assay: as above; type: cell-based
Protocol: as §2

[8] = system: Escherchia coli mutant A1; assay: as above; type: cell-based
Protocol: as §2

[9] = system: Mycobacterium smegmatis (Nal′); assay: Frequency of spontaneous resistance on plates with α-arteether; type: cell-based; details: 1000 μg/ml α-arteether
Protocol: (§3) Further to determine the frequency of spontaneous resistant mutants in Escherchia coil and Mycobacterium smegmatis for α-arteether, the applicants used the nalidixic acid resistant mutants from the earlier example as the wild type strains since those were sensitive to α-arteether to isolate α-arteether resistant colonies. Known titers of broth cultures of the mutant (Nal) bacteria were diluted and plated in petriplates containing 1000 μg/ml α-arteether, and the resistant colonies thus developed were counted to determine the frequencies (Table 2).

[10] = system: Escherchia coli (Nal′); assay: as above; type: cell-based; details: 1000 μg/ml α-arteether
Protocol: as §3

[11] = system: M2; assay: Resistance study, combination treatment vs mixed mutant cultures (optical density at 620 nm); type: cell-based, E. coli
Text: (§4) Continuing with the experimentation the applicants analyzed the growth of the mutant strains individually and upon co-cultivation compared to the wild type in presence of the compounds individually and in combination.

[12] = system: M1; assay: as above; type: cell-based, E. coli
Text: as §4

[13] = system: M1 + M2 (co-cultivation); assay: as above; type: cell-based, E. coli
Text: as §4

[14] = system: wild type (Nal^s) strains of E.coli; details: earlier invention; cited from earlier work
[15] = system: E. coli Wildtype; assay: Resistance study, combination treatment vs mixed mutant cultures (optical density at 620 nm); type: cell-based
Text: as §4

[16] = system: Escherchia coli (Wild type); assay: Frequency of spontaneous resistance on poison agar with nalidixic acid; type: cell-based; details: 50 μg/ml nalidixic acid poison agar
Protocol: (§5) In an experiment, the applicants first determined the frequency of spontaneous mutations in the bacteria Escherchia coil (Kumar, S. 1976. Journal of Bacteriology, 125: 545-555.) and Mycobacterium smegmatis (Snapper, S. B., Melton, R. E., Mustafa, S., Kieser, T. and Jacobs, W. R. 1990. Molecular Microbiology. 4:1911-1919.) leading to subsequent resistance development through selection in the presence of these drugs. Known titers of broth cultures of the bacteria were diluted and plated on poison agar medium containing 50 μg/ml nalidixic acid, and the resistant colonies thus developed were counted to estimate the frequency of drug resistance (Nal) development (Table 1).

[17] = system: Mycobacterium smegmatis (Wild type); assay: as above; type: cell-based; details: 50 μg/ml nalidixic acid poison agar
Protocol: as §5

[18] = system: E. coli (Wildtype); assay: Disc sensitivity of E. coli strains; type: cell-based; details: wild type strains; no dose stated
Text: as §1

[19] = system: Escherchia coli mutant A2; assay: Minimum inhibitory concentration of nalidixic acid; type: cell-based
Protocol: as §2

[20] = system: Escherchia coli mutant A3; assay: Minimum inhibitory concentration of nalidixic acid; type: cell-based
Protocol: as §2

[21] = system: Escherchia coli mutant A4; assay: Minimum inhibitory concentration of nalidixic acid; type: cell-based
Protocol: as §2

[22] = system: Escherchia coli mutant A1; assay: Minimum inhibitory concentration of nalidixic acid; type: cell-based
Protocol: as §2

[23] = read-out: Group by minimal inhibitory concentration of nalidixic acid
[24] = read-out: Minimum inhibitory concentration of nalidixic acid

## CCO[C@@H]1O[C@@H]2O[C@]3(C)CC[C@H]4[C@H](C)CC[C@@H]([C@H]1C)[C@@]24OO3 [α-arteether]
[1]
  Effectiveness against the strains: effective
[2]
  Sensitivity of the strain: sensitive
[3]
  Sensitivity of the strain: resistant
[4]
  pH of best activities: 7.0
[5]; 400 μg/ml α-arteether
  Growth (absorbance at 620 nm): 0.607
  Percent growth (absorbance in control as 100%): (66%)
[5]; 800 μg/ml α-arteether
  Growth (absorbance at 620 nm): 0.539
  Percent growth (absorbance in control as 100%): (58%)
[5]; 1200 μg/ml α-arteether
  Growth (absorbance at 620 nm): 0.458
  Percent growth (absorbance in control as 100%): (50%)
[6]; 400 μg/ml α-arteether
  Growth (absorbance at 620 nm): 0.421
  Percent growth (absorbance in control as 100%): (50%)
[6]; 800 μg/ml α-arteether
  Growth (absorbance at 620 nm): 0.405
  Percent growth (absorbance in control as 100%): (47%)
[6]; 1200 μg/ml α-arteether
  Growth (absorbance at 620 nm): 0.390
  Percent growth (absorbance in control as 100%): 46%
[7]; 400 μg/ml α-arteether
  Growth (absorbance at 620 nm): 0.017
  Percent growth (absorbance in control as 100%): (2%)
[7]; 800 μg/ml α-arteether
  Growth (absorbance at 620 nm): 0.007
  Percent growth (absorbance in control as 100%): (0.7%)
[7]; 1200 μg/ml α-arteether
  Growth (absorbance at 620 nm): 0.000
  Percent growth (absorbance in control as 100%): (0%)
[8]; 400 μg/ml α-arteether
  Growth (absorbance at 620 nm): 0.858
  Percent growth (absorbance in control as 100%): (93%)
[8]; 800 μg/ml α-arteether
  Growth (absorbance at 620 nm): 0.854
  Percent growth (absorbance in control as 100%): (93%)
[8]; 1200 μg/ml α-arteether
  Growth (absorbance at 620 nm): 0.817
  Percent growth (absorbance in control as 100%): (89%)
[9]
  Frequency of spontaneous resistance developed against α-arteether: 1.1 × 10^−10
[10]
  Frequency of spontaneous resistance developed against α-arteether: 1.8 × 10^−9
[11]; α arteether 400 μg/ml
  Optical density at 620 nanometer: 0.900
[11]; α arteether 800 μg/ml
  Optical density at 620 nanometer: 0.91
[12]; α arteether 400 μg/ml
  Optical density at 620 nanometer: 0.000
[12]; α arteether 800 μg/ml
  Optical density at 620 nanometer: 0.000
[13]; α arteether 400 μg/ml
  Optical density at 620 nanometer: 0.920
[13]; α arteether 800 μg/ml
  Optical density at 620 nanometer: 0.930
[14]
  Effectiveness against the strains: ineffective
[15]; α arteether 400 μg/ml
  Optical density at 620 nanometer: 0.890
[15]; α arteether 800 μg/ml
  Optical density at 620 nanometer: 0.90

## CCn1cc(C(=O)O)c(=O)c2ccc(C)nc21 [nalidixic acid]
[16]
  Frequency of spontaneous resistance developed against Nalidixic acid: 7.1 × 10^−9
[17]
  Frequency of spontaneous resistance developed against Nalidixic acid: 1.0 × 10^−10
[2]
  Sensitivity of the strain: resistant
[3]
  Sensitivity of the strain: sensitive
[18]
  Sensitivity of the strain: sensitive
[19]; [23]
  MIC: 10 to 200 µg/mL (≈ 43.1 to 861 µM)
[19]; [24]
  MIC: 37.5 µg/mL (≈ 161 µM)
[20]; [23]
  MIC: 10 to 200 µg/mL (≈ 43.1 to 861 µM)
[20]; [24]
  MIC: 150 µg/mL (≈ 646 µM)
[21]; [23]
  MIC: > 200 µg/mL
[21]; [24]
  MIC: > 300 µg/mL
[22]; mutant A1
  Group by minimal inhibitory concentration of nalidixic acid: sensitive)
[22]; [24]
  MIC: < 4 µg/mL
[11]; nalidixic acid 50 μg/ml
  Optical density at 620 nanometer: 0.000
[11]; nalidixic acid 300 μg/ml
  Optical density at 620 nanometer: 0.000
[12]; nalidixic acid 50 μg/ml
  Optical density at 620 nanometer: 0.950
[12]; nalidixic acid 300 μg/ml
  Optical density at 620 nanometer: 0.960
[13]; nalidixic acid 50 μg/ml
  Optical density at 620 nanometer: 0.910
[13]; nalidixic acid 300 μg/ml
  Optical density at 620 nanometer: 0.920
[15]; nalidixic acid 50 μg/ml
  Optical density at 620 nanometer: 0.000
[15]; nalidixic acid 300 μg/ml
  Optical density at 620 nanometer: 0.000
